From patent US10781214B2, “Kinase inhibitor against wild-type and mutant EGFR” (PRECEDO PHARMACEUTICALS CO., LTD, priority 2015, dated 2020)

How the values were obtained:
Type in all cases: cell-based
[1] = system: NCI-H3255 (expressing EGFR L858R mutant gene); experiment: Cancer cell growth, Cell Titer-Glo, 72 h: NCI-H3255; settings: Homo sapiens; NCI-H3255 cells, 72 h; read-out: GI50
Excerpt: (§1) Compounds of the present invention were further evaluated for their selectivity in inhibiting proliferation of cancer cells by testing effects of the novel kinase inhibitors on proliferation of cancer cells. In the examples the following cells were selected: human non-small cell lung cancer cell NCI-H1975 (expressing EGFR L858R/T790M double-mutant gene), human-derived non-small cell lung cancer cell PC-9 (expressing EGFR delE746_A750 mutant gene), human-derived non-small cell lung cancer cell HCC827 (expressing EGFR delE746_A750 mutant gene), human lung adenocarcinoma cell HCC4006 (expressing EGFR delE746_A750 mutant gene), human non-small cell lung cancer cell NCI-H3255 (expressing EGFR L858R mutant gene), human skin squamous carcinoma cell A431 (expressing wild-type EGFR gene), human non-small cell lung cancer cell A549 (expressing wild-type EGFR gene), human non-small cell lung cancer cell NCI-H460 (expressing wild-type EGFR gene), human non-small cell lung cancer cell NCI-H2122 (expressing wild-type EGFR gene), Chinese hamster ovary (CHO) cell (Cricetulus griseus, hamster, Chinese, ovary), Chinese hamster lung cell (CHL), mouse pro-B cell BaF3. The cells above were all purchased from (USA).
(§2) The cells were incubated for 72 h, and then the number of viable cells was determined via quantitative determination with a microplate reader by using Cell Titer-Glo® (Promega, the USA) Luminescent Cell Viability Assay kit.

[2] = system: BaF3-FL-EGFR-T790M-L858R (stably expressing EGFR T790M/L858R mutant kinase); experiment: Cell growth, Cell Titer-Glo, 72 h: BaF3-FL-EGFR-T790M-L858R; settings: Mus musculus, BaF3-FL-EGFR-T790M-L858R cells
Excerpt: (§3) In addition, this example further uses: mouse BaF3-TEL-EGFR (stably expressing wild-type EGFR kinase), mouse BaF3-TEL-EGFR-L858R (stably expressing EGFR L858R mutant kinase), mouse BaF3-TEL-EGFR-T790M (stably expressing EGFR T790M mutant kinase), mouse BaF3-FL-EGFR-DeI19 (stably expressing EGFR delE746_A750 mutant kinase), mouse BaF3-FL-EGFR-T790M-L858R (stably expressing EGFR T790M/L858R mutant kinase), mouse BaF3/P210 (stably expressing bcr/abl˜(P210) mutant kinase), mouse BaF3-TEL-ABL-T315I (stably expressing ABLT315I mutant kinase), mouse BaF3-FLT3-ITD (stably expressing FLT3/ITD mutant kinase), mouse BaF3-TEL-JAK2 (stably expressing JAK2 kinase), mouse BaF3-TEL-JAK3 (stably expressing JAK3 kinase), mouse BaF3-TPR-MET (stably expressing MET kinase), mouse BaF3-TEL-BLK (stably expressing BLK kinase), mouse BaF3-TEL-ABL (stably expressing ABL kinase), mouse BaF3-TEL-BMX (stably expressing BMX kinase), mouse BaF3-TEL-ALK (stably expressing ALK kinase). The above cell lines were all constructed by our laboratory according to the following method: the kinase region sequences of human […], EGFR L858R, EGFR T790M, EGFR delE746_A750, EGFR T790M/L858R, bcr/abl˜(P210), ABL T315I, FLT3/ITD, JAK2, JAK3, MET, BLK, ABL, BMX, ALK were amplified respectively by PCR, inserted respectively into MSCV-Puro vectors harboring N-terminal fragment and/or NPM fragment and/or TPR fragment (Clontech), then the vectors were stably transfected into mouse BaF3 cells by retrovirus methods and growth factor IL-3 was removed, eventually obtaining cell lines that are transferred protein (EGFR, EGFR L858R, EGFR T790M, EGFR delE746_A750, EGFR T790M/L858R, bcr/abl˜(P210), ABL T315I, FLT3/ITD, JAK2, JAK3, MET, BLK, ABL, BMX, ALK)-dependent.
as §2

[3] = system: BaF3-TEL-EGFR (stably expressing wild-type EGFR kinase); experiment: Cell growth, Cell Titer-Glo, 72 h: BaF3-TEL-EGFR; settings: Mus musculus, BaF3-TEL-EGFR cells, read-out: GI50
Excerpt: as §3, §2

mouse pro-B cell BaF3 = experiment: Cell growth, Cell Titer-Glo, 72 h: BaF3; settings: BaF3 cells, 72 h, read-out: GI50
Excerpt: as §1, §2

[4] = system: PC-9 (expressing EGFR delE746_A750 mutant gene); experiment: Cancer cell growth, Cell Titer-Glo, 72 h: PC-9; settings: Homo sapiens; PC-9 cells, 72 h; read-out: GI50
Excerpt: as §1, §2

[5] = system: NCI-H1975 (expressing EGFR L858R/T790M double-mutant gene); experiment: Cancer cell growth, Cell Titer-Glo, 72 h: NCI-H1975; settings: Homo sapiens; NCI-H1975 cells, 72 h; read-out: GI50
Excerpt: as §1, §2

[6] = system: A431 (expressing wild-type EGFR gene); experiment: Cancer cell growth, Cell Titer-Glo, 72 h: A431; settings: Homo sapiens, A-431; A431 cells, 72 h; read-out: GI50
Excerpt: as §1, §2

[7] = system: A549 (expressing wild-type EGFR gene); experiment: Cancer cell growth, Cell Titer-Glo, 72 h: A549; settings: Homo sapiens; A549 cells, 72 h; read-out: GI50
Excerpt: as §1, §2

[8] = system: HCC827 (expressing EGFR delE746_A750 mutant gene); experiment: Cancer cell growth, Cell Titer-Glo, 72 h: HCC827; settings: Homo sapiens; HCC827 cells, 72 h; read-out: GI50
Excerpt: as §1, §2

| GI50 [1] | GI50 [2] | GI50 [3] | GI50 (mouse pro-B cell BaF3) | GI50 [4] | GI50 [5] | GI50 [6] | GI50 [7] | GI50 [8] | SMILES |
| --- | --- | --- | --- | --- | --- | --- | --- | --- | --- |
| 20 nM | 1 nM | 4200 nM | 8500 nM | 14 nM |  |  |  |  | C=CC(=O)N1CCC[C@@H](n2nc(-c3ccc(OCc4ccccc4F)c(Cl)c3)c3c(N)ncnc32)C1 [Compound 18, (R)-1-(3-(4-amino-3-(3-chloro-4-((2-fluorobenzyl)oxy)phenyl)-1H-pyrazolo[3,4-d]pyrimidin-1-yl)piperidin-1-yl)prop-2-en-1-one] |
| 43 nM | 53 nM | 2200 nM | > 10000 nM | 9 nM | 95 nM | > 10000 nM | > 10000 nM |  | C=CC(=O)N1CCC[C@@H](n2nc(-c3ccc(F)c(Cl)c3)c3c(N)ncnc32)C1 [Compound 31, (R)-1-(3-(4-amino-3-(3-chloro-4-flurophenyl)-1H-pyrazolo[3,4-d]pyrimidin-1-yl)piperidin-1-yl)prop-2-en-1-one] |
| 28 nM | 52 nM | > 10000 nM | > 10000 nM | 51 nM |  |  |  |  | C=CC(=O)N1CCC[C@@H](n2nc(-c3ccc(OCc4cccc(F)c4)c(C#N)c3)c3c(N)ncnc32)C1 [Compound 16, (R)-1-(3-(4-amino-3-(3-cyano-4-((3-fluorobenzyl)oxy)phenyl)-1H-pyrazolo[3,4-d]pyrimidin-1-yl)piperidin-1-yl)prop-2-en-1-one] |
| 44 nM | < 0.3 nM | 3500 nM | > 10000 nM | 24 nM | < 0.3 nM | > 10000 nM | 3400 nM |  | C=CC(=O)N1CCC[C@@H](n2nc(-c3ccc(OCc4ncc(C)c(OC)c4C)c(Cl)c3)c3c(N)ncnc32)C1 [Compound 36, (R)-1-(3-(4-amino-3-(3-chloro-4-((4-methoxy-3,5-dimethylpyridin-2-yl)methoxy)phenyl)-1H-pyrazolo[3,4-d]pyrimidin-1-yl)piperidin-1-yl)prop-2-en-1-one] |
| 3800 nM |  | 6600 nM | 4600 nM | 1700 nM | 5100 nM | 8700 nM | 2800 nM |  | C=CC(=O)Nc1cc(Cn2nc(-c3ccc(F)c(Cl)c3)c3c(N)ncnc32)ccc1F [Compound 38] |
| 36 nM | 2 nM | 3300 nM | > 10000 nM | 38 nM | 3 nM | > 10000 nM | > 10000 nM |  | C=CC(=O)N1CCC[C@@H](n2nc(-c3ccc(OCc4ccc(C)nc4)c(Cl)c3)c3c(N)ncnc32)C1 [Compound 30, (R)-1-(3-(4-amino-3-(3-chloro-4-((6-methylpyridin-3-yl)methoxy)phenyl)-1H-pyrazolo[3,4-d]pyrimidin-1-yl)piperidin-1-yl)prop-2-en-1-one] |
| 46 nM | < 0.3 nM | 3600 nM | > 10000 nM | 180 nM | 56 nM | > 10000 nM | 3100 nM |  | C=CC(=O)N1CCC[C@@H](n2nc(-c3ccc(OCc4ccccn4)c(C(F)(F)F)c3)c3c(N)ncnc32)C1 [Compound 35, (R)-1-(3-(4-amino-3-(3-trifluoromethyl-4-(pyridin-2-ylmethoxy)phenyl)-1H-pyrazolo[3,4-d]pyrimidin-1-yl)piperidin-1-yl)prop-2-en-1-one] |
| > 10000 nM |  |  | > 10000 nM | > 10000 nM | > 10000 nM |  |  |  | C=CC(=O)N1CCC[C@@H](n2nc(-c3ccc(OCc4cccc(F)c4)nc3)c3c(N)ncnc32)C1 [Compound 19, (R)-1-(3-(4-amino-3-(6-((3-fluorobenzyl)oxy)pyridin-3-yl)-1H-pyrazolo[3,4-d]pyrimidin-1-yl)piperidin-1-yl)prop-2-en-1-one] |
| 4900 nM | > 10000 nM |  | > 10000 nM | 7000 nM | > 10000 nM |  | > 10000 nM |  | C=CC(=O)N1CCC[C@@H](n2nc(-c3ccc(CN4CCN(C)CC4)cc3)c3c(N)ncnc32)C1 [Compound 20] |
| 330 nM | 130 nM | 690 nM | 4500 nM | 170 nM | 710 nM | 3900 nM | > 10000 nM |  | CN(C)C/C=C/C(=O)N1CCC[C@@H](n2nc(-c3ccc(F)c(Cl)c3)c3c(N)ncnc32)C1 [Compound 32, (R)-1-(3-(4-amino-3-(3-chloro-4-flurophenyl)-1H-pyrazolo[3,4-d]pyrimidin-1-yl)piperidin-1-yl)-4-(dimethylamino)but-2-en-1-one] |
| < 0.3 nM | < 0.3 nM |  | 4300 nM | 7 nM | 7 nM |  | 3800 nM |  | C=CC(=O)N1CCC[C@@H](n2nc(-c3ccc(OCc4cc(F)ccc4F)c(Cl)c3)c3c(N)ncnc32)C1 [Compound 23, (R)-1-(3-(4-amino-3-(3-chloro-4-((2,5-difluorobenzyl)oxy)phenyl)-1H-pyrazolo[3,4-d]pyrimidin-1-yl)piperidin-1-yl)prop-2-en-1-one] |
| 9 nM | < 0.3 nM | 1400 nM | 2500 nM | 16 nM | 38 nM |  |  |  | C=CC(=O)N1CCC[C@@H](n2nc(-c3ccc(OCc4cccc(F)c4)c(C)c3)c3c(N)ncnc32)C1 [Compound 14, (R)-1-(3-(4-amino-3-(3-methyl-4-((3-fluorobenzyl)oxy)phenyl)-1H-pyrazolo[3,4-d]pyrimidin-1-yl)piperidin-1-yl)prop-2-en-1-one] |
| < 0.3 nM | 2 nM | 2800 nM | 9800 nM | 10 nM | 8 nM | > 10000 nM | > 10000 nM |  | C=CC(=O)N1CCC[C@@H](n2nc(-c3ccc(OCc4nccs4)c(Cl)c3)c3c(N)ncnc32)C1 [Compound 28, (R)-1-(3-(4-amino-3-(3-chloro-4-(thiazol-2-ylmethoxy)phenyl)-1H-pyrazolo[3,4-d]pyrimidin-1-yl)piperidin-1-yl)prop-2-en-1-one] |
| < 0.3 nM | < 0.3 nM |  | 1900 nM | 6 nM | 1600 nM |  | > 10000 nM |  | C=CC(=O)N1CCC[C@@H](n2nc(-c3ccc(OCc4cccc(F)c4)cc3F)c3c(N)ncnc32)C1 [Compound 24, (R)-1-(3-(4-amino-3-(2-fluoro-4-((3-fluorobenzyl)oxy)phenyl)-1H-pyrazolo[3,4-d]pyrimidin-1-yl)piperidin-1-yl)prop-2-en-1-one] |
| 56 nM | 43 nM |  | > 10000 nM | 25 nM | 350 nM |  | 2700 nM | 84 nM | C=CC(=O)N1CCC[C@@H](n2nc(-c3ccc(OCc4cccc(F)c4)c(OC)c3)c3c(N)ncnc32)C1 [Compound 8] |
